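96-well plates; 48 h exposure; 5 concentrations. Endpoints by linear interpolation between flanking doses. Not reached: highest tested concentration assigned. Abbreviation: GI50, concentration required for 50% inhibition of growth.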 The source made the active and inactive calls. Cut-off read from the data, not from the text of the source: active = GI50 up to about 1.1 µM and inactive = higher.
Legend:
Assay in all cases: NCI-60 cell line screen, 48 h
A549 = system: A549
BT-549 = system: BT-549
CCRF-CEM = system: CCRF-CEM
COLO 205 = system: COLO 205
HCT-116 = system: HCT-116
HOP-62 = system: HOP-62
HT-29 = system: HT-29
Hs-578T = system: Hs-578T
IGROV-1 = system: IGROV-1
M14 = system: M14
MCF7 = system: MCF7
MDA-MB-231 = system: MDA-MB-231
MOLT-4 = system: MOLT-4
NCI-H23 = system: NCI-H23
OVCAR-5 = system: OVCAR-5
RXF 393 = system: RXF 393
SK-MEL-28 = system: SK-MEL-28
SR = system: SR
SW-620 = system: SW-620
MDA-N = system: MDA-N

Measured: GI50

CCOC(=O)C[n+]1cccc(C2(c3cc4ccccc4[nH]3)OCCO2)c1
inactive: A549 > 100 µM | BT-549 > 100 µM | CCRF-CEM > 100 µM | COLO 205 > 100 µM | HCT-116 > 100 µM | HOP-62 > 100 µM | HT-29 > 100 µM | Hs-578T > 100 µM | IGROV-1 > 100 µM | M14 > 100 µM | MCF7 > 100 µM | MDA-MB-231 > 100 µM | MOLT-4 > 100 µM | NCI-H23 > 100 µM | OVCAR-5 > 100 µM | RXF 393 > 100 µM | SK-MEL-28 > 100 µM | SR > 100 µM | SW-620 > 100 µM

N#Cc1nc(-c2ccccc2C(=O)O)oc1N
inactive: A549 > 100 µM | CCRF-CEM > 100 µM | COLO 205 > 100 µM | HCT-116 > 100 µM | HOP-62 > 100 µM | HT-29 > 100 µM | Hs-578T > 100 µM | IGROV-1 > 100 µM | M14 > 100 µM | MCF7 > 100 µM | MDA-MB-231 > 100 µM | MDA-N > 100 µM | MOLT-4 > 100 µM | NCI-H23 > 100 µM | OVCAR-5 > 100 µM | RXF 393 > 100 µM | SK-MEL-28 > 100 µM | SR > 100 µM | SW-620 > 100 µM

O=C(Cc1ccc(O)c(O)c1)NCc1c[nH]c2ccccc12
inactive: A549 64.7 µM | BT-549 43.9 µM | CCRF-CEM 6.95 µM | COLO 205 42 µM | HCT-116 32.4 µM | HOP-62 17.8 µM | HT-29 > 100 µM | Hs-578T > 100 µM | M14 35.5 µM | MCF7 42 µM | MOLT-4 20.4 µM | NCI-H23 39.1 µM | OVCAR-5 > 100 µM | RXF 393 29 µM | SK-MEL-28 83.6 µM | SW-620 92 µM

CC(CO)(CBr)COC(=O)c1cc(Br)c(N)c(Br)c1 (centres undefined)
inactive: A549 > 100 µM | BT-549 76.2 µM | CCRF-CEM > 100 µM | COLO 205 > 100 µM | HCT-116 94 µM | HOP-62 32.4 µM | HT-29 > 100 µM | IGROV-1 33.9 µM | M14 > 100 µM | MDA-MB-231 37.1 µM | MDA-N 59.7 µM | MOLT-4 > 100 µM | NCI-H23 79.3 µM | OVCAR-5 > 100 µM | SK-MEL-28 > 100 µM | SR 30.7 µM | SW-620 > 100 µM

O=S1(=O)OCCOS(=O)(=O)C1(F)Br
inactive: A549 > 100 µM | CCRF-CEM > 100 µM | COLO 205 > 100 µM | HCT-116 > 100 µM | HOP-62 > 100 µM | HT-29 > 100 µM | Hs-578T > 100 µM | M14 > 100 µM | MCF7 > 100 µM | MDA-N > 100 µM | MOLT-4 > 100 µM | NCI-H23 > 100 µM | OVCAR-5 > 100 µM | RXF 393 > 100 µM | SK-MEL-28 > 100 µM | SR > 100 µM | SW-620 > 100 µM

Cc1cc(=O)oc2c(CNC(C)C(=O)O)c(O)ccc12 (centres undefined)
inactive: A549 > 100 µM | CCRF-CEM > 100 µM | COLO 205 > 100 µM | HCT-116 71.4 µM | HOP-62 > 100 µM | HT-29 > 100 µM | Hs-578T > 100 µM | IGROV-1 > 100 µM | M14 > 100 µM | MCF7 > 100 µM | MDA-MB-231 > 100 µM | MDA-N > 100 µM | MOLT-4 > 100 µM | NCI-H23 > 100 µM | OVCAR-5 > 100 µM | RXF 393 > 100 µM | SK-MEL-28 > 100 µM | SR > 100 µM | SW-620 > 100 µM

O=[N+]([O-])c1c(Br)cc(Br)c2c1Nc1c(ccc(Cl)c1Cl)S2
inactive: A549 20.2 µM | BT-549 2.88 µM | CCRF-CEM 2.39 µM | COLO 205 11.9 µM | HCT-116 6.37 µM | HOP-62 18.8 µM | HT-29 11.7 µM | Hs-578T 25.1 µM | IGROV-1 14.9 µM | M14 11.4 µM | MCF7 2.87 µM | MDA-MB-231 13.2 µM | MOLT-4 3.06 µM | NCI-H23 14.4 µM | OVCAR-5 17.9 µM | RXF 393 19.6 µM | SK-MEL-28 16.6 µM | SR 5.86 µM | SW-620 7.14 µM

O=[N+]([O-])c1ccc2nnnn2c1
inactive: A549 45.3 µM | BT-549 23.3 µM | COLO 205 23.9 µM | HCT-116 4.18 µM | HOP-62 31 µM | HT-29 16.5 µM | Hs-578T 5.38 µM | IGROV-1 34.3 µM | M14 13.8 µM | MCF7 24 µM | MDA-MB-231 10.8 µM | MOLT-4 2.62 µM | NCI-H23 22.6 µM | OVCAR-5 41.4 µM | RXF 393 > 100 µM | SK-MEL-28 20.8 µM | SR 4.76 µM | SW-620 12.7 µM

Source: ChEMBL document CHEMBL1201862, “PubChem BioAssay data set” (2004)
